Results published in patent publication US9877962B2, “Piperazinyl derivatives for the treatment of cancer” (priority 2011, dated 2018).
Where two headings read alike, the source gives them in different places.

Columns and labels:
Type in all cases: cell-based, human
MCF-7/adr = test: Cytotoxicity test (ViaLight Plus cell proliferation) on MCF-7/adr; conditions: adriamycin-resistant line, 72 hours' incubation, cell viability vs 0.5% DMSO control
Source text: (§1) The effects of the compounds of the invention on the proliferation of cancer cells were studied on different human cancer cell lines of different tissue origin (MCF-7: breast cancer, MCF-7/adr adriamycin-resistant breast cancer, HL-60: acute promyelocytic leukaemia, HL-60/R10: doxorubicin-resistant acute promyelocytic leukaemia, HT29: colon adenocarcinoma, Mia Paca2: pancreatic tumour, Panc-1: pancreatic exocrine tumour, SK-OV-3: cisplatin- and adriamycin resistant ovarian cancer). The cancer cells used for this study were incubated at 37° C. in the presence of one of the compounds of the invention added to the culture medium at different concentrations.
(§2) The cancer cell lines were obtained from ATCC (American Type Culture Collection) for MCF-7, from Hôpital de la Pitié Salpetrière for MCF-7/adr and from Oncodesign (Dijon, France) for HL-60, HL-60/R10, HT29, MiaPaCa2, Panc-1 and SK-OV-3. They were cultured in RPMI 1640 medium containing 2 mM L-Glutamine supplemented with 10% foetal calf serum (Lonza; Verviers, Belgium). All the cell lines were held in culture at 37° C. in a humid atmosphere containing 5% CO2. Cell proliferation was assessed using the ViaLight® Plus Assay Kit (Lonza; Verviers, Belgium) following the manufacturer's instructions. The cells were seeded in 96-well culture plates compatible with luminescence read-off (white plates with transparent bottom) in a proportion of 5 000 to 10 000 cells per well in 100 μl of culture medium. After a pre-incubation time of 24 hours at 37° C., the compounds of the invention dissolved in dimethylsulfoxide (DMSO) were individually added to each well in a proportion of 0.5 μl per well. After 72 hours' incubation at 37° C. in a humid atmosphere containing 5% CO2, 50 μl of lysis buffer were added to each well and 15 minutes later 100 μl of ATP measuring agent were added. The plates were read under a luminometer to evaluate cell viability. The data obtained was processed by computer to obtain the EC50 value i.e. the concentration value of each of the compounds which induces 50% cell viability compared with a control value (0.5% DMSO alone).

HL-60/R10 = test: Cytotoxicity test (ViaLight Plus cell proliferation) on HL-60/R10; conditions: doxorubicin-resistant line, 72 hours' incubation, cell viability vs 0.5% DMSO control, read-out: EC50 HL60/R10; for IC50: Homo sapiens
Source text: as §1, §2

HL-60 = test: Cytotoxicity test (ViaLight Plus cell proliferation) on HL-60; conditions: 72 hours' incubation, cell viability vs 0.5% DMSO control; for IC50: Homo sapiens, read-out: EC50 HL-60
Source text: as §1, §2

MCF-7 = test: Cytotoxicity test (ViaLight Plus cell proliferation) on MCF-7; conditions: 72 hours' incubation, cell viability vs 0.5% DMSO control
Source text: as §1, §2

Compound | EC50 (MCF-7/adr) [nM] | EC50 (HL-60/R10) [nM] | EC50 (HL-60) [nM] | further results
CC(C)[C@H]1CN(C(=O)C(c2ccc(F)cc2)N(C(=O)CCl)c2ccc(Oc3ccccc3)cc2)CCN1 (single isomer, unassigned) [I-3 dia1] | 55 | 15 | 1310 | EC50 (MCF-7): 927 nM
CC(C)[C@@H]1CN(C(=O)C(c2ccc(F)cc2)N(C(=O)CCl)c2ccc(Oc3ccccc3)cc2)CCN1 (single isomer, unassigned) [I-4 dia1] | 13 | 4 | 648 | EC50 (MCF-7): 315 nM
CC(C)[C@@H]1CN(C(=O)C(c2ccc(F)cc2)N(C(=O)CCl)c2ccc(Oc3ccccc3)cc2)CCN1 (single isomer, unassigned) [I-4 dia2] | 166 | 62 | 1320 | EC50 (MCF-7): 863 nM
Cc1cc(Oc2ccccc2)ccc1N(C(=O)CCl)C(C(=O)N1CCN[C@@H](C(C)C)C1)c1ccc(F)cc1 (single isomer, unassigned) [I-7 dia1] | 618 | 604 | – | IC50 (HL-60; HL-60, 72 h): 2500 nM; IC50 (MCF-7; Homo sapiens, MCF7, 72 h, read-out: EC50 MCF-7): 2500 nM
CC[C@@H]1CN(C(=O)C(c2ccc(F)cc2)N(C(=O)CCl)c2ccc(Oc3ccccc3)cc2C)CCN1C(=O)OC(C)(C)C (single isomer, unassigned; dia1) [I-16 dia1] | 527 | 450 | 1480 | –
CC[C@H]1CN(C(=O)C(c2ccc(F)cc2)N(C(=O)CCl)c2ccc(Oc3ccccc3)cc2C)CCN1 (single isomer, unassigned; dia1) [I-17 dia1] | 898 | 353 | 2310 | –
CC[C@@H]1CN(C(=O)C(c2ccc(F)cc2)N(C(=O)CCl)c2ccc(Oc3ccccc3)cc2C)CCN1 (single isomer, unassigned; dia1) [I-18 dia1] | 485 | 140 | 1600 | –
CC[C@H]1CN(C(=O)C(c2ccc(F)cc2)N(C(=O)CCl)c2ccc(Oc3ccccc3)cc2)CCN1C(=O)OC(C)(C)C (single isomer, unassigned; dia1) [I-19 dia1] | 128 | 97 | 516 | –
Cc1cc(CCC(C)(C)C)ccc1N(C(=O)CCl)C(C(=O)N1CCNC(C(C)C)C1)c1ccc(F)cc1 (single isomer, unassigned; dia1) [I-25 dia1] | – | 43 | 1120 | –
Cc1cc(Oc2ccccc2)ccc1N(C(=O)CCl)C(C(=O)N1CCN(C(=O)OC(C)(C)C)[C@H](C)C1)c1cccs1 (single isomer, unassigned; dia1) [I-40 dia1] | 371 | 248 | 2130 | –
Cc1cc(Oc2ccccc2)ccc1N(C(=O)CCl)C(C(=O)N1CCN[C@@H](C(C)C)C1)c1cccs1 (single isomer, unassigned; dia1) [I-46 dia1] | 544 | 318 | – | –
Cc1cc(Oc2ccccc2)ccc1N(C(=O)CCl)C(C(=O)N1CCN[C@@H](CC(C)C)C1)c1cccs1 (single isomer, unassigned; dia1) [I-47 dia1] | – | 54 | 936 | –
CC(C)[C@H]1CN(C(=O)C(c2cccs2)N(C(=O)CCl)c2cccc(C(F)(F)F)c2)CCN1 (single isomer, unassigned; dia1) [I-50 dia1] | – | 259 | 2100 | –
CC(C)C[C@H]1CN(C(=O)C(c2cccs2)N(C(=O)CCl)c2ccc(Oc3ccccc3)cc2)CCN1 (single isomer, unassigned; dia1) [I-51 dia1] | – | 96 | 145 | –
Cc1cc(Cl)ccc1N(C(=O)CCl)C(C(=O)N1CCN[C@@H](C(C)C)C1)c1cccs1 (single isomer, unassigned; dia1) [I-52 dia1] | – | 194 | – | –
CC[C@@H]1CN(C(=O)C(c2ccc(F)cc2)N(C(=O)CCl)c2ccc(Oc3ccccc3)cc2C)CCN1C(=O)OC(C)(C)C (single isomer, unassigned; dia2) [I-16 dia2] | 443 | 317 | 1910 | –
CC[C@H]1CN(C(=O)C(c2ccc(F)cc2)N(C(=O)CCl)c2ccc(Oc3ccccc3)cc2)CCN1C(=O)OC(C)(C)C (single isomer, unassigned; dia2) [I-19 dia2] | 35 | 24 | 453 | –
CC[C@@H]1CN(C(=O)C(c2ccc(F)cc2)N(C(=O)CCl)c2ccc(Oc3ccccc3)cc2)CCN1C(=O)OC(C)(C)C (single isomer, unassigned; dia2) [I-20 dia2] | 165 | 139 | 1480 | –

Compound | EC50 (MCF-7/adr) [nM] | EC50 (HL-60/R10) [nM] | EC50 (HL-60) [nM] | further results
Cc1cc(CCC(C)(C)C)ccc1N(C(=O)CCl)C(C(=O)N1CCNC(C(C)C)C1)c1ccc(F)cc1 (single isomer, unassigned; dia2) [I-25 dia2] | – | 103 | 819 | –
Cc1cc(Oc2ccccc2)ccc1N(C(=O)CCl)C(C(=O)N1CCN(C(=O)OC(C)(C)C)[C@H](C)C1)c1cccs1 (single isomer, unassigned; dia2) [I-40 dia2] | 827 | 487 | – | –
Cc1cc(Oc2ccccc2)ccc1N(C(=O)CCl)C(C(=O)N1CCN[C@@H](CC(C)C)C1)c1cccs1 (single isomer, unassigned; dia2) [I-47 dia2] | – | 8 | 849 | –
CC(C)C[C@H]1CN(C(=O)C(c2cccs2)N(C(=O)CCl)c2ccc(Oc3ccccc3)cc2)CCN1 (single isomer, unassigned; dia2) [I-51 dia2] | – | 1 | 3 | –
Cc1cc(Cl)ccc1N(C(=O)CCl)C(C(=O)N1CCN[C@@H](C(C)C)C1)c1cccs1 (single isomer, unassigned; dia2) [I-52 dia2] | – | 24 | 223 | –
Cc1cc(Oc2ccccc2)ccc1N(C(=O)CCl)C(C(=O)N1CCN(C(=O)OC(C)(C)C)C(C(=O)NCc2ccccc2)C1)c1cccs1 (single isomer, unassigned; dia2) [I-53 dia2] | – | 305 | 547 | –
Cc1cc(CCC(C)(C)C)ccc1N(C(=O)CCl)C(C(=O)N1CCN[C@@H](C(C)C)C1)c1ccc(F)cc1 (stereo partly shown) [Example I-23] | – | – | – | IC50 (HL-60/R10; HL-60, 72 h): 12 nM; IC50 (HL-60; HL-60, 72 h): 559 nM
Cc1cc(CCC(C)(C)C)ccc1N(C(=O)CCl)C(C(=O)N1C[C@@H](C)N[C@@H](C)C1)c1ccc(F)cc1 (stereo partly shown) [Example I-24] | – | – | – | IC50 (HL-60/R10; HL-60, 72 h): 15 nM; IC50 (HL-60; HL-60, 72 h): 626 nM
CC1CN(C(=O)C(c2cccs2)N(C(=O)CCl)c2cccc(C(F)(F)F)c2)CC(C)N1C(=O)OC(C)(C)C (stereo not shown) [Example I-28] | – | – | – | IC50 (HL-60/R10; HL-60, 72 h): 206 nM; IC50 (HL-60; HL-60, 72 h): 623 nM
Cc1cc(Oc2ccccc2)ccc1N(C(=O)CCl)C(C(=O)N1CCN2CCC[C@H]2C1)c1cccs1 (stereo partly shown) [Example I-33] | 394 | 157 | – | –
C[C@@H]1CN(C(=O)[C@H](c2cccs2)N(C(=O)CCl)c2ccc(Oc3ccccc3)cc2)C[C@H](C)N1 [Example I-44] | – | 7 | 215 | –
Cc1cc(Oc2ccccc2)ccc1N(C(=O)CCl)C(C(=O)N1CCNC(c2ccccc2)C1)c1cccs1 (stereo not shown) [Example I-45] | – | – | – | IC50 (HL-60/R10; HL-60, 72 h): 17 nM; IC50 (HL-60; HL-60, 72 h): 2140 nM
Cc1cc(Oc2ccccc2)ccc1N(C(=O)CCl)C(C(=O)N1CCNC(Cc2ccccc2)C1)c1cccs1 (stereo not shown) [Example I-48] | – | – | – | IC50 (HL-60/R10; HL-60, 72 h): 10 nM; IC50 (HL-60; HL-60, 72 h): 1990 nM
Cc1cc(Cl)ccc1N(C(=O)CCl)C(C(=O)N1C[C@@H](C)N[C@@H](C)C1)c1cccs1 (stereo partly shown) [Example I-49] | – | – | – | IC50 (HL-60/R10; HL-60, 72 h): 321 nM; IC50 (HL-60; HL-60, 72 h): 1170 nM
Cc1cc(Oc2ccccc2)ccc1N(C(=O)CCl)C(C(=O)N1CCNCC1)c1ccc(F)cc1 (stereo not shown) [reference compound] | – | – | – | IC50 (HL-60/R10; HL-60, 72 h): 226 nM; IC50 (HL-60; HL-60, 72 h): 1630 nM
C[C@@H]1CNCCN1C(=O)C(c1cccs1)N(C(=O)CCl)c1ccc(Oc2ccccc2)cc1 (stereo partly shown) [reference compound] | – | – | – | IC50 (HL-60/R10; HL-60): 38 nM; IC50 (HL-60; HL-60): 311 nM
tert-butyl ester of 4-[2-[(2-chloro-acetyl)-(4-phenoxy-phenyl)-amino]-2-(4-fluoro-phenyl)-acetyl]-(S)-2-isopropyl-piperazine-1-carboxylic acid [I-1 dia1] | 338 | – | 1800 | –
tert-butyl ester of 4-[-2-[(2-chloro-acetyl)-(4-phenoxy-phenyl)-amino]-2-(4-fluoro-phenyl)-acetyl]-(R)-2-isopropyl-piperazine-1-carboxylic acid [I-2 dia2] | 645 | 472 | 2060 | –
